Data on 39 compounds can be found in patent US20240109905A1, “4-ALKOXY-6-OXO-PYRIDAZINE DERIVATIVES MODULATING NLRP3” (JANSSEN PHARMACEUTICA NV, priority 2021, published 2024).

In general, AC50 refers to the concentration giving half of the maximal activity seen.

For one assay, the system named is IL-1β. In words: PBMC assay: IL-1β release after LPS stimulation. Format: cell-based. The note with it: PBMC; human PBMCs, 30 min compound, 100 ng/ml LPS for 6 hrs, MSD; read-out: IL1β AC50. How it is done: The activity of a compound according to the present invention can be assessed by in vitro methods.
(§1) Peripheral venous blood was collected from healthy individuals and human peripheral blood mononuclear cells (PBMCs) were isolated from blood by Ficoll-Histopaque (Sigma-Aldrich, A0561) density gradient centrifugation. After isolation, PBMCs were stored in liquid nitrogen for later use. Upon thawing, PBMC cell viability was determined in growth medium (RPMI media supplemented with 10% fetal bovine serum, 1% Pen-Strep and 1% L-glutamine). Compounds were spotted in a 1:3 serial dilution in DMSO and diluted to the final concentration in 30 μl medium in 96 well plates (Falcon, 353072). PBMCs were added at a density of 7.5×10^4 cells per well and incubated for 30 min in a 5% CO2 incubator at 37° C. LPS stimulation was performed by addition of 100 ng/ml LPS (final concentration, Invivogen, tlrl-smlps) for 6 hrs followed by collection of cellular supernatant and the analysis of IL-1β (μM) and TNF cytokines levels (μM) via MSD technology according to manufacturers' guidelines (MSD, K151A0H).
(§2) IC50 and AC50 values (for […]) and EC50 and AC50 values (TNF) were obtained on compounds of the invention/examples, and the AC50 values are depicted in the following table: […]

Another assay relates to TNF. In words: PBMC assay: TNF cytokine level after LPS stimulation. Format: cell-based. The note with it: PBMC; human PBMCs, 30 min compound, 100 ng/ml LPS for 6 hrs, MSD. How it is done:
as §1, §2

Take `CC(C)c1nn(CC(=O)Nc2ccc3nncn3c2)c(=O)cc1OC1CCN(C(=O)OC(C)(C)C)C1` (stereo not drawn) [Compound 1F, tert-butyl 3-((1-(2-([1,2,4]triazolo[4,3-a]pyridin-6-ylamino)-2-oxoethyl)-3-isopropyl-6-oxo-1,6-dihydropyridazin-4-yl)oxy)pyrrolidine-1-carboxylate]: the figures for the AC50 in the assay with IL-1β and with TNF were greater than 15 µM and greater than 10 µM, respectively.

With `CC(C)c1nn(CC(=O)Nc2ccc3nncn3c2)c(=O)cc1OCC1CN(C(=O)OC(C)(C)C)C1` [Compound 2F], the AC50 in the assay on IL-1β is greater than 15 µM; in the assay with TNF, greater than 10 µM.

Turning to `CC(C)c1nn(CC(=O)Nc2ccc3nncn3c2)c(=O)cc1OC1CN(C(=O)OC(C)(C)C)C1` [Compound 3F], the figures for the concentration at half-maximal activity (AC50) in the assay on IL-1β and with TNF were greater than 15 µM and greater than 10 µM, respectively.

As to `CC(Oc1cc(=O)n(CC(=O)Nc2ccc3nncn3c2)nc1C(C)C)C(=O)N(C)C` (stereo not drawn) [Compound 4F], the values for the concentration at half-maximal activity (AC50) in the assay with IL-1β and with TNF were greater than 15 µM and greater than 10 µM, respectively.

For `CC(C)c1nn(CC(=O)Nc2ccc3nncn3c2)c(=O)cc1OC1CCCC1` [Compound 5F], the results for the half-maximal activity concentration (AC50) in the assay with IL-1β and with TNF were 0.47 µM and greater than 10 µM, respectively.

As to `CC(C)c1nn(CC(=O)Nc2ccc3nncn3c2)c(=O)cc1OCC1CS(=O)(=O)C1` [Compound 6F], the values for the half-maximal activity concentration (AC50) in the assay with IL-1β and in the assay with TNF were greater than 15 µM and greater than 10 µM, respectively.

In the case of `CC(C)c1nn(CC(=O)Nc2ccc3nncn3c2)c(=O)cc1OCC1CCC1` [Compound 7F], the values for the concentration at half-maximal activity (AC50) with IL-1β and with TNF were 0.21 µM and greater than 10 µM, respectively.

With `CC(C)c1nn(CC(=O)Nc2ccc3nncn3c2)c(=O)cc1OCC(C)(F)F` [Compound 8F], the values for the concentration at half-maximal activity (AC50) in the assay on IL-1β and in the assay with TNF were 0.19 µM and greater than 10 µM, respectively.

Turning to `CCC(C)Oc1cc(=O)n(CC(=O)Nc2ccc3nncn3c2)nc1C(C)C` (stereo not drawn) [Compound 9F], the concentration at half-maximal activity (AC50) in the assay with IL-1β was 0.56 µM; in the assay on TNF, greater than 10 µM.

As for `CC(C)COc1cc(=O)n(CC(=O)Nc2ccc3nncn3c2)nc1C(C)C` [Compound 10F], the AC50 is 0.06 µM in the assay with IL-1β and greater than 10 µM with TNF.

Turning to `CC(C)c1nn(CC(=O)Nc2ccc3nncn3c2)c(=O)cc1OCC(C)(C)F` [Compound 11F], the half-maximal activity concentration (AC50) is 0.32 µM with IL-1β and greater than 10 µM in the assay with TNF.

As for `CC(C)c1nn(CC(=O)Nc2ccc3nncn3c2)c(=O)cc1OCCN(C)C` [Compound 12F], the figures for the half-maximal activity concentration (AC50) in the assay with IL-1β and with TNF were greater than 15 µM and greater than 10 µM, respectively.

For the compound `CC(C)c1nn(CC(=O)Nc2ccc3nncn3c2)c(=O)cc1OC1COC1` [Compound 13F], the half-maximal activity concentration (AC50) in the assay with IL-1β is greater than 15 µM; in the assay with TNF, greater than 10 µM.

For the compound `CC(C)c1nn(CC(=O)Nc2ccc3nncn3c2)c(=O)cc1OC1CCC1` [Compound 14F], the AC50 with IL-1β was 0.68 µM; in the assay with TNF it was greater than 10 µM.

Turning to `CC(C)c1nn(CC(=O)Nc2ccc3nncn3c2)c(=O)cc1OCC1(C)COC1` [Compound 15F], the figures for the AC50 in the assay on IL-1β and in the assay on TNF were 2.3 µM and greater than 10 µM, respectively.

On to `CC(C)c1nn(CC(=O)Nc2ccc3nncn3c2)c(=O)cc1OCC(C)(C)C(F)(F)F` [Compound 16F], for which the half-maximal activity concentration (AC50) with IL-1β is 1.56 µM; with TNF, greater than 10 µM.

As to `CC(C)c1nn(CC(=O)Nc2ccc3nncn3c2)c(=O)cc1OCC(F)F` [Compound 17F], the AC50 in the assay with IL-1β is 0.69 µM; in the assay with TNF, greater than 10 µM.

Regarding `CC(C)Oc1cc(=O)n(CC(=O)Nc2ccc3nncn3c2)nc1C(C)C` [Compound 18F], the concentration at half-maximal activity (AC50) in the assay on IL-1β is 0.66 µM; in the assay with TNF, greater than 10 µM.

Consider `CC(C)c1nn(CC(=O)Nc2ccc3nncn3c2)c(=O)cc1OCC1CC(F)(F)C1` [Compound 19F], for which the figures for the AC50 in the assay with IL-1β and with TNF were 5.33 µM and greater than 10 µM, respectively.

For the compound `CC(C)c1nn(CC(=O)Nc2ccc3nncn3c2)c(=O)cc1OC(C)C(F)(F)F` (stereo not drawn) [Compound 20F], the AC50 in the assay with IL-1β is 1.29 µM; with TNF, greater than 10 µM.

Regarding `CC(C)c1nn(CC(=O)Nc2ccc3nncn3c2)c(=O)cc1OCC1CC1(F)F` (stereo not drawn) [Compound 21F], the AC50 with IL-1β was 0.65 µM; in the assay on TNF, greater than 10 µM.

For `CC(C)c1nn(CC(=O)Nc2ccc3nncn3c2)c(=O)cc1OCC1CC1` [Compound 22F], the AC50 in the assay with IL-1β is 0.11 µM; in the assay with TNF, greater than 10 µM.

As to `CC(C)c1nn(CC(=O)Nc2ccc3nncn3c2)c(=O)cc1OCC(F)(F)F` [Compound 23F], the AC50 in the assay with IL-1β was 0.16 µM; with TNF, greater than 10 µM.

On to `CCCOc1cc(=O)n(CC(=O)Nc2ccc3nncn3c2)nc1C(C)C` [Compound 24F], for which the concentration at half-maximal activity (AC50) in the assay with IL-1β is 0.19 µM; in the assay on TNF, greater than 10 µM.

`CC(C)c1nn(CC(=O)Nc2ccc3nncn3c2)c(=O)cc1Oc1ccccc1` [Compound 25F]: the results for the AC50 in the assay on IL-1β and in the assay on TNF were greater than 15 µM and greater than 10 µM, respectively.

For the compound `CC(C)c1nn(CC(=O)Nc2ccc3nncn3c2)c(=O)cc1OC1CCOCC1` [Compound 26F], the values for the AC50 with IL-1β and with TNF were 13.6 µM and greater than 10 µM, respectively.

For `COc1cc(=O)n(CC(=O)Nc2ccc3nncn3n2)nc1C(C)C` [Compound 27C, N-([1,2,4]triazolo[4,3-b]pyridazin-6-yl)-2-(3-isopropyl-4-methoxy-6-oxopyridazin-1(6H)-yl)acetamide], the AC50 with IL-1β was 13.3 µM; with TNF, greater than 10 µM.

Take `COc1c(C(C)C)nn(CC(=O)Nc2ccc3nncn3c2)c(=O)c1C1CC1` [Compound 28E]: the half-maximal activity concentration (AC50) in the assay on IL-1β was greater than 15 µM; with TNF, greater than 10 µM.

Consider `COc1c(C(C)C)nn(CC(=O)Nc2ccc3nncn3c2)c(=O)c1Br` [Compound 29E], for which the AC50 was greater than 15 µM in the assay with IL-1β and greater than 10 µM in the assay with TNF.

For the compound `O=C(Cn1nc(C2CC2)c(OC2CCOCC2)cc1=O)Nc1ccc2nncn2c1` [Compound 30G], the AC50 in the assay with IL-1β was 14.6 µM; in the assay with TNF it was greater than 10 µM.

Turning to `CCOc1cc(=O)n(CC(=O)Nc2ccc3nncn3n2)nc1C1CC1` [Compound 31C], the values for the concentration at half-maximal activity (AC50) with IL-1β and in the assay with TNF were 0.92 µM and greater than 10 µM, respectively.

Turning to `O=C(Cn1nc(C2CC2)c(OCC23CC(CO2)C3)cc1=O)Nc1ccc2nncn2n1` [Compound 32E], the results for the concentration at half-maximal activity (AC50) in the assay with IL-1β and in the assay on TNF were 14.6 µM and greater than 10 µM, respectively.

`CCOc1cc(=O)n(CC(=O)Nc2ccc3nncn3c2)nc1C1CC1` [Compound 33D]: the half-maximal activity concentration (AC50) is 1.25 µM in the assay with IL-1β and greater than 10 µM in the assay with TNF.

In the case of `COC(=O)C12CC(NC(=O)Cn3nc(C(C)C)c(OCC(C)C)cc3=O)(C1)C2` [Compound 36, methyl 3-(2-(4-isobutoxy-3-isopropyl-6-oxopyridazin-1(6H)-yl)acetamido)bicyclo[1.1.1]pentane-1-carboxylate], the values for the half-maximal activity concentration (AC50) in the assay on IL-1β and with TNF were 0.01 µM and 3.81 µM, respectively.

Consider `COC(=O)C12CCC(NC(=O)Cn3nc(C(C)C)c(OCC(C)C)cc3=O)(CC1)C2` [Compound 38], for which the AC50 turned out to be 0.02 µM in the assay with IL-1β and 12.2 µM with TNF.

In the case of `CC(C)COc1c(C(C)C)nn(CC(=O)Nc2ccc3nncn3n2)c(=O)c1Cl` [Compound 39], the AC50 amounted to 0.02 µM with IL-1β and 0.6 µM in the assay with TNF.

For `CC(C)COc1cc(=O)n(CC(=O)Nc2ccc3nncn3n2)nc1C(C)C` [Compound 41], the AC50 was 0.04 µM in the assay with IL-1β and greater than 20 µM in the assay on TNF.

With `Cc1c(OCC(C)C)c(C(C)C)nn(CC(=O)Nc2ccc3nncn3n2)c1=O` [Compound 42], the AC50 is 0.05 µM in the assay with IL-1β and 9.41 µM in the assay with TNF.

In the case of `CC(C)COc1cc(=O)n(CC(=O)Nc2nc3cnccn3n2)nc1C(C)C` [Compound 43], the figures for the AC50 in the assay with IL-1β and with TNF were 0.07 µM and greater than 20 µM, respectively.
